Data from PMC4980083 (JCI insight, 2016).

Columns and labels:
PC3 cells = assay: PC3 proliferation/viability; format: cell-based, human; details: up to 10 times the IC50 required to reduce AR-dependent proliferation; 3 days
PRβ = biological target: T1, PRβ (Homo sapiens, UniProt P06401); assay: PR transcriptional activity, PRE luciferase reporter; format: cell-based; details: 2 μM; progesterone 10 nM
T1 sequence (P06401 1-933): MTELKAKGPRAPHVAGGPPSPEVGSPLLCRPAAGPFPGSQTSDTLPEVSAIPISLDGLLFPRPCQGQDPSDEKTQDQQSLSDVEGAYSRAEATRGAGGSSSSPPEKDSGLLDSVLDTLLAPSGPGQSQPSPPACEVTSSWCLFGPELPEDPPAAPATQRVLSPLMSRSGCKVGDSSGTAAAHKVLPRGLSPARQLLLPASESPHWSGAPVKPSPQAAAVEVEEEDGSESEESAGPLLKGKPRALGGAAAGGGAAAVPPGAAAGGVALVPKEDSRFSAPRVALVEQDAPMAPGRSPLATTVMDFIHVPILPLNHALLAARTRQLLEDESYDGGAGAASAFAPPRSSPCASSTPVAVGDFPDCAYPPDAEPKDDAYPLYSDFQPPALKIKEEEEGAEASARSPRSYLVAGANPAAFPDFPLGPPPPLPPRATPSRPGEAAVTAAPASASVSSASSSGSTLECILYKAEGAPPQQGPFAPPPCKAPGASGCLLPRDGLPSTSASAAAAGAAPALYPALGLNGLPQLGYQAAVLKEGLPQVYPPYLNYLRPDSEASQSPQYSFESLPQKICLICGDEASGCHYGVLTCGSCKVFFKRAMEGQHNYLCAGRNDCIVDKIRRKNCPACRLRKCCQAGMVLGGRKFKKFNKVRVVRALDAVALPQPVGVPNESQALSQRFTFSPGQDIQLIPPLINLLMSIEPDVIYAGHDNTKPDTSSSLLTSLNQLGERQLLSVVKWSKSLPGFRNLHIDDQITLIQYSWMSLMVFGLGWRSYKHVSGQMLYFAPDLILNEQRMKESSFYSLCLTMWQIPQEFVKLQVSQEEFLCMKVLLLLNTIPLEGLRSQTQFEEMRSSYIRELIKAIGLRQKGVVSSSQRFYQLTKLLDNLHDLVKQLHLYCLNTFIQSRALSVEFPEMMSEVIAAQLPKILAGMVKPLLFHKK

With 15-IodoEPI002 [I-EPI-002] the “effect on proliferation or viability of PC3 cells” value (PC3 cells) was “no effect” and the “inhibition of PR transcriptional activity” value (PRβ) was “did not inhibit”.
